Measurements as given in patent publication US10131679B2, “Substituted dihydropyrrolopyrazole compound” (UBE INDUSTRIES, LTD., priority 2014, dated 2018).

Columns and labels:
[1] = tested on: IL-2 production in human peripheral blood mononuclear cell (PBMC); test: Human PBMC CD3/CD28-induced IL-2 production inhibition test; assay type: cell-based; details: 48 h, CD3/CD28 stimulation, incubation for 2 days, ELISA
Outline: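 Healthy-donor PBMC were stimulated with compound for 2 days on anti-CD3-coated plates with anti-CD28 (2 μg/mL in medium before cell addition), in RPMI1640/10% FBS with 0.1% DMSO final. Supernatant IL-2 was measured by sandwich ELISA; IC50 (nM) came from inhibition relative to DMSO-only stimulated wells.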

[2] = tested on: IL-17 production in human PBMC-derived T cells; test: Human PBMC various-stimulant cocktail-induced IL-17 production inhibition test; assay type: cell-based; details: 120 h; human T-cell suspension from PBMC, cocktail of various stimulants, incubation for 5 days, ELISA
Source text: Human PBMC Various-Stimulant Cocktail-Induced IL-17 Production Inhibition Test
PBMC was separated and collected by using Ficoll-Paque (17-1440-02 manufactured by GE Healthcare Japan Corp.) from blood collected from healthy human adult in the presence of heparin. The collected PBMC was further cultured in a flask for a certain time, and then, non-adherent cells in the supernatant were collected and used as a T-cell suspension. RPMI1640 medium (manufactured by GIBCO/Thermo Fisher Scientific, Inc., REF. 11875), which is containing 10% FBS (manufactured by GIBCO/Thermo Fisher Scientific, Inc., REF. 10082), 1% penicillin/streptomycin/amphotericin B (manufactured by GIBCO/Thermo Fisher Scientific, Inc., REF. 15240-096), 1% nonessential amino acids (manufactured by GIBCO/Thermo Fisher Scientific, Inc., REF. 11140-050), and 1% pyruvic acid (manufactured by GIBCO/Thermo Fisher Scientific, Inc., REF. 11140) and containing a test compound dissolved in DMSO, 2 μg/mL (final concentration) CD28 antibody (manufactured by BioLegend, Inc., Cat. No. 302914), 10 μg/mL (final concentration) human IFN-γ antibody (manufactured by BD Biosciences, Cat. No. 554698), 10 μg/mL (final concentration) human IL-4 antibody (manufactured by BD Biosciences, Cat. No. 554481), 20 ng/mL (final concentration) human IL-6 (manufactured by BioLegend, Inc., Cat. No. 570802), 10 ng/mL (final concentration) human IL-23 (manufactured by BioLegend, Inc., Cat. No. 574102), 10 ng/mL (final concentration) human IL-1(3 (manufactured by PeproTech Inc., Cat. No. 200-01B), and 10 ng/mL (final concentration) human TGF-13 (manufactured by BioLegend, Inc., Cat. No. 580702), was added at 100 μL/well to T cell Activation Plate Anti-Human CD3 96-well plate (manufactured by Corning Inc., REF. 354725). Subsequently, 100 μL of a T-cell suspension adjusted to 2×10^5 cells/mL was added to each well (final DMSO concentration: 0.1%). Only DMSO was added to wells in the absence of the test compound. After incubation for 5 days in a carbon dioxide incubator, the culture supernatant was collected and stored at −20° C. until IL-17 content measurement.
In the IL-17 content measurement in the culture supernatant, a sandwich ELISA kit (Quantikine Human IL-17, manufactured by R&D Systems, Inc.) was used. The IL-17 content of each sample was calculated from the calibration curve of Standard IL-17 included in the kit. When the amount of IL-17 produced by the cocktail of various stimulants in the case of the addition of only DMSO was defined as 100%, the rate of inhibition of IL-17 production at each concentration of the test compound was calculated. The concentration of the test compound necessary for inhibiting 50% of IL-17 production (IC50 value) was calculated from the concentration of the added test compound and the rate of inhibition of IL-17 production by the test compound by using EXSUS (version 8.0.0 or version 8.0.1, manufactured by CAC Exicare Corp.).

SMILES	IC50 [1]	IC50 [2]
CC(C)(O)C[C@@H](NC(=O)N1Cc2c(NC(=O)C3([Si](C)(C)C)CCC3)n[nH]c2C1(C)C)c1ccccc1 [IV-299, (R)—N-(3-Hydroxy-3-methyl-1-phenylbutyl)-6,6-dimethyl-3-[1-(trimethylsilyl)cyclobutanecarboxamido]-4,6-dihydropyrrolo[3,4-c]pyrazole-5(1H)-carboxamide]	≤ 50 nM	≤ 50 nM
CC1(C)c2[nH]nc(NC(=O)C3([Si](C)(C)C)CCC3)c2CN1C(=O)[C@H](OC(F)F)c1ccccc1 [IV-1180, (R)—N-{5-[2-(Difluoromethoxy)-2-phenylacetyl]-6,6-dimethyl-1,4,5,6-tetrahydropyrrolo[3,4-c]pyrazol-3-yl}-1-(trimethylsilyl)cyclobutanecarboxamide]	≤ 50 nM	≤ 50 nM
CCO[C@@H](C(=O)N1Cc2c(NC(=O)C3([Si](C)(C)C)CCC3)n[nH]c2C1(C)C)c1ccccc1 [IV-1188, (R)—N-[5-(2-Ethoxy-2-phenylacetyl)-6,6-dimethyl-1,4,5,6-tetrahydropyrrolo[3,4-c]pyrazol-3-yl]-1-(trimethylsilyl)cyclobutanecarboxamide]	≤ 50 nM	≤ 50 nM
CC(C)O[C@@H](C(=O)N1Cc2c(NC(=O)C3([Si](C)(C)C)CCC3)n[nH]c2C1(C)C)c1ccccc1 [IV-1204, (R)—N-[5-(2-Isopropoxy-2-phenylacetyl)-6,6-dimethyl-1,4,5,6-tetrahydropyrrolo[3,4-c]pyrazol-3-yl]-1-(trimethylsilyl)cyclobutanecarboxamide]		≤ 50 nM
CC1(C)c2[nH]nc(NC(=O)C3([Si](C)(C)C)CCC3)c2CN1C(=O)NC(c1ccccc1)C1(CO)CCC1 (stereo not drawn) [IV-718, N-{[1-(Hydroxymethyl)cyclobutyl](phenyl)methyl}-6,6-dimethyl-3-[1-(trimethylsilyl)cyclobutanecarboxamido]-4,6-dihydropyrrolo[3,4-c]pyrazole-5(1H)-carboxamide]		≤ 50 nM
CCCO[C@@H](C(=O)N1Cc2c(NC(=O)C3([Si](C)(C)C)CCC3)n[nH]c2C1(C)C)c1ccccc1 [IV-1196, (R)—N-[6,6-Dimethyl-5-(2-phenyl-2-propoxyacetyl)-1,4,5,6-tetrahydropyrrolo[3,4-c]pyrazol-3-yl]-1-(trimethylsilyl)cyclobutanecarboxamide]		≤ 50 nM
CC1(C)c2[nH]nc(NC(=O)C3([Si](C)(C)C)CCC3)c2CN1C(=O)[C@H](OC1CC1)c1ccccc1 [IV-1208, (R)—N-[5-(2-Cyclopropoxy-2-phenylacetyl)-6,6-dimethyl-1,4,5,6-tetrahydropyrrolo[3,4-c]pyrazol-3-yl]-1-(trimethylsilyl)cyclobutanecarboxamide]		≤ 50 nM
CC1(C)c2[nH]nc(NC(=O)C3([Si](C)(C)C)CCC3)c2CN1C(=O)[C@H](OC(F)(F)F)c1ccccc1 [IV-1184, (R)—N-{6,6-Dimethyl-5-[2-phenyl-2-(trifluoromethoxy)acetyl]-1,4,5,6-tetrahydropyrrolo[3,4-c]pyrazol-3-yl}-1-(trimethylsilyl)cyclobutanecarboxamide]		≤ 50 nM
CC(C)(CO)C(NC(=O)N1Cc2c(NC(=O)C3([Si](C)(C)C)CCC3)n[nH]c2C1(C)C)c1ccccc1 (racemic) [IV-354, N-(3-Hydroxy-2,2-dimethyl-1-phenylpropyl)-6,6-dimethyl-3-[1-(trimethylsilyl)cyclobutanecarboxamido]-4,6-dihydropyrrolo[3,4-c]pyrazole-5(1H)-carboxamide]	≤ 50 nM	≤ 50 nM
CC[Si](C)(C)C1(C(=O)Nc2n[nH]c3c2CN(C(=O)[C@H](OC)c2ccccc2)C3(C)C)CCC1 [IV-1178, (R)-1-(Ethyldimethylsilyl)-N-[5-(2-methoxy-2-phenylacetyl)-6,6-dimethyl-1,4,5,6-tetrahydropyrrolo[3,4-c]pyrazol-3-yl] cyclobutanecarboxamide]	≤ 50 nM	≤ 50 nM
COC(C(=O)N1Cc2c(NC(=O)C3([Si](C)(C)C)CCC3)n[nH]c2C1(C)C)c1cccs1 (stereo not drawn) [IV-1546, N-{5-[2-Methoxy-2-(thiophen-2-yl)acetyl]-6,6-dimethyl-1,4,5,6-tetrahydropyrrolo[3,4-c]pyrazol-3-yl}-1-(trimethylsilyl)cyclobutanecarboxamide]		≤ 50 nM
CO[C@@H](C(=O)N1Cc2c(NC(=O)C3([Si](C)(C)C)CCC3)n[nH]c2C1(C)C)c1ccccc1 [IV-1175, (R)—N-[5-(2-Methoxy-2-phenylacetyl)-6,6-dimethyl-1,4,5,6-tetrahydropyrrolo[3,4-c]pyrazol-3-yl]-1-(trimethylsilyl)cyclobutanecarboxamide]	≤ 50 nM	≤ 50 nM
